Source: US20230082611A1, “COMPOSITIONS AND METHODS FOR THE TREATMENT OF RESPIRATORY SYNCYTIAL VIRUS” (Cidara Therapeutics, Inc., priority 2019, published 2023)

tested on: RSV (Respiratory Syncytial Virus strain A2); experiment: RSV cytopathic effects (CPE) assay; format: cell-based; details: human respiratory syncytial virus, 96 h; RSV A2, MOI 0.01, HEp-2 cells, day 4, crystal violet; average of duplicate wells; read-out: EC50
Description: The activity of anti-RSV compounds and conjugates was determined using an in vitro cell-based assay following a standard protocol in the field. Briefly, ten four-fold serial dilutions of each test article (TA) starting at 10 μM were prepared in duplicate and incubated with RSV (Respiratory Syncytial Virus strain A2) at a multiplicity of infection (MOI) of 0.01, for one hour. The RSV-TA mix was then added to HEp-2 cells seeded in 96-well plates and incubated for one hour.

| EC50 | Compound |
| --- | --- |
| 2200 nM | C#CCOCCOCCNC(=N)N[C@H]1CCN(c2nc3cc([C@@H]4CCCCN4C(=O)c4cc(Cl)ccc4NS(C)(=O)=O)nn3cc2C)C1 [Int-6] |

same assay, conditions: human respiratory syncytial virus, HEp-2, 96 h

| Compound | EC50 |
| --- | --- |
| C#CCOCCOCCOCCOCCOCCOCCOCCOCCN[C@H]1CCN(c2nc3cc([C@@H]4CCCCN4C(=O)c4cc(Cl)ccc4NS(C)(=O)=O)nn3cc2C)C1 [Int-8] | 2.29 nM |

tested on: RSV Long strain; experiment: RSV microneutralization assay, RSV Long strain; format: cell-based; details: human respiratory syncytial virus, HEp-2, […], read-out: RSV Long EC50
Description: Duplicate 10-fold serial dilutions of compound in DMEM with 2% HI-FBS, 1× P/S, 2 mM L-Gln were prepared in 96-well tissue culture plates at 60 μL/well. The RSV Long strain (RetroVirox, San Diego), RSV A2 strain (Virapur, San Diego), RSV B1 strain (RetroVirox, San Diego), or RSV strain CH18537 (RetroVirox, San Diego), were diluted in DMEM with 2% HI-FBS, 1× P/S, 2 mM L-Gln and 60 μL/well added to 60 μL compound for a multiplicity of infection (MOI) of 0.002 (Long, A2), 0.003 (B1), or 0.004 (CH18537). Virus only (no drug) and cells only (no virus, no drug) controls were included on each plate. The compound-virus mix was incubated for 1 h at 37° C. and 5% CO2. After 1 h, medium was removed from HEp-2 cells by aspiration and wells washed once with 100 μL/well 1×PBS pH 7.4 (Fisher cat #MT21040CM). The compound-virus mix (100 μL/well) was added to the cells and incubated for 1 h at 37° C. and 5% CO2 prior to addition of 100 μL/well of DMEM with 2% HI-FBS, 1× P/S, 2 mM L-Gln (200 μL final vol) and incubation at 37° C. and 5% CO2. On day 6 post infection, supernatant was aspirated and cells fixed with 100 μL/well ice-cold 80% acetone in 1×PBS for 20 min at 4° C. The acetone was aspirated and plates air-dried for 20 min at room temperature. The plates were washed 3× with 200 μL/well 1×PBS, 0.05% Tween-20 (PBST) and blocked with 200 μL/well 5% non-fat dry milk (Fisher cat #50-195-952) in PBST for 1 h with shaking (500 rpm) on an orbital plate shaker. The blocking solution was discarded and cells incubated with 100 μL/well mouse anti-F protein antibody (MilliporeSigma cat #MAB8599) diluted 1:2,000 in diluent (blocking solution diluted 1:1 in 1×PBS pH 7.4) for 2 h with shaking. Plates were washed 5× with 300 μL/well PBST and incubated with 100 μL/well HRP-conjugated goat anti-mouse IgG antibody (SouthernBiotech cat #1030-05) diluted 1:1,000 in diluent for 1 h with shaking. Plates were washed 5× with 300 μL/well PBST and incubated with 100 μL/well TMB substrate (Fisher cat #BDB555214) for ˜5 min. The reaction was stopped with 100 μL/well 1N H2SO4. Absorbance was read at 450 nm with an EnSpire multimode plate reader (PerkinElmer). The mean A450 for the cells only control was subtracted from all A450 values, and the percent virus neutralisation calculated for each compound concentration, relative to the virus only control.

| Compound | EC50 |
| --- | --- |
| C#CCOCCOCCOCCOCCNCC1CN(c2nc3cc([C@@H]4CCCCN4C(=O)c4cc(Cl)ccc4NS(C)(=O)=O)nn3cc2C)C1 [Int-01] | 98 nM |
| C#CCOCCOCCOCCOCCN1CCN(CCCN[C@H]2CCN(c3nc4cc([C@H]5CCCCN5C(=O)c5cc(Cl)ccc5NS(C)(=O)=O)nn4cc3C)C2)CC1 [Int-10] | 97 nM |
| C#CCOCCOCCOCCOCCOCCOCCOCCOCCN[C@H]1CCN(c2nc3cc([C@@H]4CCCCN4C(=O)c4cc(Cl)ccc4NS(C)(=O)=O)nn3cc2C)C1 [Int-8] | 43 nM |

same assay, conditions: human respiratory syncytial virus; MOI 0.002, HEp-2 cells, day 6; read-out: RSV Long EC50

| Compound | EC50 |
| --- | --- |
| C#CCOCCOCCOCCOCCO[C@@H]1CN(c2nc3cc([C@@H]4CCCCN4C(=O)c4cc(Cl)ccc4NS(C)(=O)=O)nn3cc2C)C[C@H]1N [Int-04] | > 1000 nM |
| C#CCOCCOCCOCCOCCC(=O)N[C@@H](CS(=O)(=O)O)C(=O)N1CCN(CCCN[C@H]2CCN(c3nc4cc([C@@H]5CCCCN5C(=O)c5ccc(Cl)cc5NS(C)(=O)=O)nn4cc3C)C2)CC1 [Int-23] | > 1000 nM |
| C#CCOCCOCCOCCOCCN[C@@H]1CN(c2nc3cc([C@@H]4CCCCN4C(=O)c4cc(Cl)ccc4NS(C)(=O)=O)nn3cc2C)C[C@@H]1O [Int-03] | > 1000 nM |
| C#CCOCCOCCOCCOCCN1CCN(CCCCN[C@H]2CCN(c3nc4cc([C@@H]5CCCCN5C(=O)c5cc(Cl)ccc5NS(C)(=O)=O)nn4cc3C)C2)CC1 [Int-24] | > 1000 nM |

Results, then the molecule that gave them:

| EC50 | Compound |
| --- | --- |
| > 1000 nM | C#CCOCCOCCOCCOCCOCCOCCOCCCCN[C@H]1CCN(c2nc3cc([C@@H]4CCCCN4C(=O)c4cc(Cl)ccc4NS(C)(=O)=O)nn3cc2C)C1 [Int-05] |
| 0.09 nM | Cc1nnnn1N=Cc1ccc(O)c(C(c2ccc(O)cc2)c2cc(C=Nn3nnnc3C)ccc2O)c1 (stereo not shown) [VP14637, MDT 637, reference compound] |
| 200 nM | C#CCOCCOCCOCCOCCC(=O)N(CC(=O)NCCOCCOCCOCCOCCOCCOCCOCCOCCOCCOCCOCCOC)CC(=O)NCCn1cc(COCCOCCOCCOCCOCCOCCOCCCCN[C@H]2CCN(c3nc4cc([C@@H]5CCCCN5C(=O)c5cc(Cl)ccc5NS(C)(=O)=O)nn4cc3C)C2)nn1 [Int-27] |
| 0.13 nM | C#CCOCCOCCOCCOCCC(=O)NCCCCn1c(CN2C(=O)C3(CCN(C(=O)OC(C)C)CC3)c3ccncc32)nc2cc(Cl)ccc21 [Int-34] |
| 170 nM | C#CCOCCOCCOCCOCCOCCOCCOCCOCCNC(=O)CN(CC(=O)NCCOCCOCCOCCOCCOCCOCCOCCOCCOCCOCCOCCOC)C(=O)CCCCN[C@H]1CCN(c2nc3cc(C4CCCCN4C(=O)c4cc(Cl)ccc4NS(C)(=O)=O)nn3cc2C)C1 (stereo partly shown) [Int-26] |
| 92 nM | C#CCOCCOCCOCCOCCOCCOCCOCCOCCNC(=O)CN(CC(=O)O)C(=O)CCCCN[C@H]1CCN(c2nc3cc([C@@H]4CCCCN4C(=O)c4cc(Cl)ccc4NS(C)(=O)=O)nn3cc2C)C1 [Int-25] |
| 110 nM | C#CCOCCOCCOCCOCCO[C@H]1CN(c2nc3cc([C@@H]4CCCCN4C(=O)c4cc(Cl)ccc4NS(C)(=O)=O)nn3cc2C)C[C@H]1N [Int-02] |
